Assays:
Assay type in all cases: cell-based
[1] = test system: human oral cancer cells OECM-1; assay: Apoptotic DNA breaks, TUNEL assay by flow cytometry; conditions: 50 μM, 24 h
Description: (§1) Human oral cancer cell line OECM-1 cells were incubated for 24 h with ginsenoside M1 (10˜20 μg/ml), 50 μM cistaplatin (CDDP) or vehicle (0.1% DMSO). (FIG. 3A) The apoptotic DNA breaks was assayed by terminal deoxynucleotidyl transferase dUTP nick end labeling (TUNEL) assay using flow cytometry. (FIG. 3B) The cell cycle distribution was determined by PI staining using flow cytometry. (FIG. 3C) The apoptosis level was measured by PI/Annexin V double staining assay using flow cytometry. (FIG. 3D) The activation levels of caspase-9 and caspase-3 were measured by detecting the degradation of pro-caspase-9 and pro-caspase-3 using Western blotting. […] (One-way ANOVA with Dunnett's multiple comparisons test).
(§2) To gain further insight into the mode of action of ginsenoside M1, three assays targeting hallmarks of apoptosis, namely (1) the apoptotic DNA breaks assayed by terminal deoxynucleotidyl transferase dUTP nick end labeling (TUNEL) assay, (2) the cell cycle assayed by flow cytometry after propidium iodide (PI)-staining nuclei, (3) the PI/Annexin V double staining assay, and (4) caspase activation were performed. Plate 1×10^6 human oral cancer cells OECM-1 per 6-cm dish in 2 ml of culture medium and were grown overnight at 37° C. in a 5% CO2 incubator. The cells were incubated for 24 h with ginsenoside M1 (10˜20 μg/ml), 50 μM cistaplatin (CDDP) or vehicle. Each group contains a final DMSO concentration of 0.1%. Thereafter, three assays were performed. […] The cells in sub-G1 phase increased after treatment with ginsenoside M1 and CDDP. (FIG. 3B). […] The data were expressed as mean±SD; n=3. ** and *** indicate a significant difference at the level of p<0.01 and p<0.001, respectively, compared to vehicle-control cells. (One-way ANOVA with Dunnett's multiple comparisons test).

[2] = test system: human oral cancer cells OECM-1; assay: Cell cycle distribution, PI staining by flow cytometry; conditions: 50 μM, 24 h
Description: as §1, §2

[3] = test system: human oral cancer cells OECM-1; assay: PI/Annexin V double staining assay by flow cytometry; conditions: 50 μM, 24 h
Description: as §1, §2

[4] = test system: human oral cancer cells SAS; assay: Viability of human oral cancer SAS cells, Trypan blue exclusion; conditions: 5˜20 μg/ml, 24 h
Description: (§3) Human oral cancer cell line SAS cells (FIG. 1A) or OECM-1 cells (FIG. 1B) were incubated for 24 h with ginsenoside M1 (5˜20 μg/ml), ginsenoside Rh2 (5˜20 μg/ml) or vehicle (0.1% DMSO). The live cell numbers were counted by Trypan blue exclusion method. The data were expressed as mean±SD; n=3. *, ** and *** indicate a significant difference at the level of p<0.05, p<0.01 and p<0.001, respectively, compared to vehicle-control cells. (One-way ANOVA with Dunnett's multiple comparisons test).
(§4) Plate 5×10^5 human oral cancer cells SAS per 6-cm dish in 2 ml of culture medium and were grown overnight at 37° C. in a 5% CO2 incubator. The cells were incubated for 24 h with ginsenoside M1 (5˜20 μg/ml), ginsenoside Rh2 (5˜20 μg/ml) or vehicle. Each group contains a final DMSO concentration of 0.1%. Thereafter, the cell numbers were counted by Trypan blue exclusion method. […] The data were expressed as mean±SD; n=3. *, ** and *** indicate a significant difference at the level of p<0.05, p<0.01 and p<0.001, respectively, compared to vehicle-control cells. (One-way ANOVA with Dunnett's multiple comparisons test).

[5] = test system: human oral cancer OECM-1 cells; assay: Viability of human oral cancer OECM-1 cells, Trypan blue exclusion; conditions: 5˜20 μg/ml, 24 h
Description: as §3, §4

[6] = test system: normal human gingival epithelioid cell line SG; assay: Toxicity to normal human gingival epithelioid SG cells, Trypan blue exclusion; conditions: 20 μg/ml, 24 h
Description: as §3, with “normal human gingival epithelioid” for “oral cancer”, “SG” for “SAS”, “cells” for “cells (FIG. 1A) or OECM-1 cells (FIG. 1B)”, “n=3.” for “n=3. *,”, “of” for “of p<0.05,”
as §4, with “5×10^5 normal” for “5×10^5”, “gingival epithelioid cell line SG” for “oral cancer cells SAS”, “n=3.” for “n=3. *,”, “of” for “of p<0.05,”

Compound: N.N.[Cl][Pt][Cl] [CDDP, cistaplatin, reference compound]
- apoptotic DNA breaks in OECM-1 cells [1]: significantly induced
- cells in sub-G1 phase [2]: increased
- cells in G1 phase ([2]; vs control cells): increased
- percentage of cells in S and G2/M phase ([2]; vs control cells): decreasing
- percentage of OECM-1 cells with PI/Annexin V double positive staining [3]: significantly increased

Compound: CC(C)=CCC[C@](C)(O)[C@H]1CC[C@]2(C)[C@@H]1[C@H](O)C[C@@H]1[C@@]3(C)CC[C@H](O[C@@H]4O[C@H](CO)[C@@H](O)[C@H](O)[C@H]4O)C(C)(C)[C@@H]3CC[C@]12C [ginsenoside Rh2, reference compound]
- cell numbers of human oral cancer SAS cells [4]: dose-dependently inhibited
- cell numbers of human oral cancer OECM-1 cells [5]: dose-dependently inhibited
- toxicity to SG cells [6]: completely killed the SG cells
